Source: US20240239811A1, “5-(5-(PIPERIDIN-4-YL)THIENO[3,2-C]PYRAZOL-2-YL]INDAZOLE DERIVATIVES AND RELATED COMPOUNDS AS MODULATORS FOR SPLICING NUCLEIC ACIDS AND FOR THE T” (REMIX THERAPEUTICS INC., priority 2020, published 2024)
Where a name gives a salt, the structure may show the parent alone.

Experiments:
Type in all cases: cell-based
Target C CJ mRNA = experiment: Gene panel canonical junction qPCR assay, Target C; conditions: Table 6, decrease in CJ mRNA, read-out: Target C IC50 (decrease in CJ mRNA levels)
Method in brief: (§1)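 A673 or K562 cells treated 24 h at 37° C with 11-point 3-fold dilutions, top 10 uM, DMSO ≤0.25%. CJ mRNA quantified by RT-qPCR with exon-junction-spanning probeset, ΔΔCt vs housekeeping gene (GAPDH, GUSB or PPIA) and DMSO control. IC50 from 4-parameter fit of percentage CJ decrease.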

HTT CJ mRNA = experiment: Gene panel canonical junction qPCR assay, HTT; conditions: Table 6, decrease in CJ mRNA, read-out: HTT IC50 (decrease in CJ mRNA levels)
Method in brief: as §1

HTT mRNA = experiment: Splicing assay (RT-qPCR) monitoring HTT splice variants, canonical (CJ) and alternative (AJ) junction; conditions: 50% response, A673 or K562 cell line, 24 hours; for IC50: decrease in CJ mRNA; for AC50: increase in AJ mRNA
Method in brief: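 A673 or K562 cells were treated 24 h with an 11-point 3-fold dilution series (top 10 uM, ≤0.25% DMSO) at 37 °C. HTT canonical- and alternative-junction mRNAs were quantified in lysates by one-step RT-qPCR. Values were normalized to PPIA (A673) or GAPDH/GUSB (K562).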

SMN2 CJ mRNA = experiment: Gene panel canonical junction qPCR assay, SMN2; conditions: Table 6, decrease in CJ mRNA, read-out: SMN2 IC50 (decrease in CJ mRNA levels)
Method in brief: as §1

| Structure (SMILES) | IC50 (Target C CJ mRNA) | IC50 (HTT CJ mRNA) | IC50 (HTT mRNA) | IC50 (SMN2 CJ mRNA) | AC50 (HTT mRNA) |
| --- | --- | --- | --- | --- | --- |
| Cn1cc2cc(-c3nc4sc(C5CCNCC5)cc4s3)c(O)c(F)c2n1 [Compound 206, 7-fluoro-2-methyl-5-[5-(piperidin-4-yl)thieno[2,3-d][1,3]thiazol-2-yl]indazol-6-ol] | 100 to 1000 nM | < 100 nM | < 100 nM | < 100 nM | < 100 nM |
| COc1cc2nn(C)cc2cc1-c1cc2cn(C3CCNCC3)nc2s1 [Compound 208] | 100 to 1000 nM | 100 to 1000 nM | 100 to 1000 nM | < 100 nM | 100 to 1000 nM |
| Cn1cc2cc(-c3cc4cn(C5CCNCC5)nc4s3)c(O)cc2n1 [Compound 209, 2-methyl-5-[2-(piperidin-4-yl)thieno[2,3-c]pyrazol-5-yl]indazol-6-ol] | 1000 to 10000 nM | 100 to 1000 nM | 100 to 1000 nM | 100 to 1000 nM | 1000 to 10000 nM |
| Cn1cc2cc(-c3cc4cn(C5CCNCC5)nc4s3)c(C#N)cc2n1 [Compound 211] | 1000 to 10000 nM | 1000 to 10000 nM | 1000 to 10000 nM | 100 to 1000 nM | 1000 to 10000 nM |
| Cc1cn2nc(-c3cc4cn(C5CCNCC5)nc4s3)c(O)c2c(C)n1 [Compound 213, 4,6-dimethyl-2-[2-(piperidin-4-yl)thieno[2,3-c]pyrazol-5-yl]pyrazolo[1,5-a]pyrazin-3-ol hydrochloride] | > 10000 nM | 1000 to 10000 nM | 1000 to 10000 nM | 1000 to 10000 nM | 1000 to 10000 nM |
| Cn1cc2cc(-c3cc4cn(C5CCNCC5)nc4s3)ncc2n1 [Compound 214] | 1000 to 10000 nM | 1000 to 10000 nM | 1000 to 10000 nM | 100 to 1000 nM | 100 to 1000 nM |
| COc1c(-c2cc3cn(C4CCNCC4)nc3s2)nn2cc(C)nc(C)c12 [Compound 219, 4-(5-{3-methoxy-4,6-dimethylpyrazolo[1,5-a]pyrazin-2-yl}thieno[2,3-c]pyrazol-2-yl) piperidine] | > 10000 nM | > 10000 nM | > 10000 nM | 1000 to 10000 nM | > 10000 nM |
| Cc1c(O)c(-c2cc3cn(C4CCNCC4)nc3s2)cc2cn(C)nc12 [Compound 221] | > 10000 nM | > 10000 nM | > 10000 nM | > 10000 nM | > 10000 nM |
| COc1c(-c2cc3cn(C4CCNCC4)nc3s2)cc(F)c2nn(C)cc12 [Compound 224] | > 10000 nM | > 10000 nM | > 10000 nM | > 10000 nM | > 10000 nM |

The next lines start with results.

| IC50 (Target C CJ mRNA) | IC50 (HTT CJ mRNA) | IC50 (HTT mRNA) | IC50 (SMN2 CJ mRNA) | Structure (SMILES) | AC50 (HTT mRNA) |
| --- | --- | --- | --- | --- | --- |
| 1000 to 10000 nM | 100 to 1000 nM | 100 to 1000 nM | < 100 nM | Cn1cc2cc(-c3cc4cn(C5CCNCC5)nc4s3)ccc2n1 [Compound 207] | 100 to 1000 nM |
| 100 to 1000 nM | < 100 nM | < 100 nM | < 100 nM | Cn1cc2cc(-c3cc4cn(C5CCNCC5)nc4s3)c(F)cc2n1 [Compound 210] | < 100 nM |
| 100 to 1000 nM | 100 to 1000 nM | 100 to 1000 nM | < 100 nM | Cn1cc2cc(-c3cc4cn(C5CCNCC5)nc4s3)c(O)c(F)c2n1 [Compound 215] | 100 to 1000 nM |
| 100 to 1000 nM | < 100 nM | < 100 nM | < 100 nM | Cc1cn2cc(-c3cc4cn(C5CCNCC5)nc4s3)cc(C)c2n1 [Compound 216] | < 100 nM |
| 100 to 1000 nM | < 100 nM | < 100 nM | < 100 nM | COc1c(-c2cc3cn(C4CCNCC4)nc3s2)cc2cn(C)nc2c1F [Compound 218] | 100 to 1000 nM |
| 1000 to 10000 nM | 1000 to 10000 nM | 1000 to 10000 nM | 1000 to 10000 nM | Cn1cc2cc(-n3cc4cc(C5CCNCC5)sc4n3)c(O)cc2n1 [Compound 220] | 1000 to 10000 nM |
| 1000 to 10000 nM | 1000 to 10000 nM | 1000 to 10000 nM | < 100 nM | Cc1cn2nc(-c3cc4cn(C5CCNCC5)nc4s3)cc2c(C)n1 [Compound 222] | 1000 to 10000 nM |
| 1000 to 10000 nM | 1000 to 10000 nM | 1000 to 10000 nM | 100 to 1000 nM | Cc1cn2cc(-c3cc4cn(C5CCNCC5)nc4s3)ncc2n1 [Compound 223] | 1000 to 10000 nM |
